assay: Influence of humidity: water content of crystals after standing at controlled relative humidity; format: physicochemical; conditions: 22 to 93% RH, 7 days, 25° C.
Description: Test Example 1 Influence of Humidity After being allowed to stand the compounds of the present invention (T-614β, T-614γ and T-614 hydrate) and the compound disclosed as Example 5 in Japanese Patent Laid-Open No. 5-97840 (T-614α) under the relative humidity 22, 51, 75 and 93% RH for 7 days at 25° C., the water content of each crystal was measured.

SMILES	Change of water content with rising relative humidity
CS(=O)(=O)Nc1cc2occ(NC=O)c(=O)c2cc1Oc1ccccc1 [T-614 hydrate, N-[3-(formylamino)-4-oxo-6-phenoxy-4H-chromen-7-yl]methanesulfonamide]	almost kept unchanged
CS(=O)(=O)Nc1cc2occ(NC=O)c(=O)c2cc1Oc1ccccc1 [T-614α, N-[3-(formylamino)-4-oxo-6-phenoxy-4H -chromen-7-yl]methanesulfonamide, reference compound]	increased with the rising of relative humidity
CS(=O)(=O)Nc1cc2occ(NC=O)c(=O)c2cc1Oc1ccccc1 [T-614β, N-[3-(formylamino)-4-oxo-6-phenoxy-4H-chromen-7-yl]methanesulfonamide]	almost kept unchanged
CS(=O)(=O)Nc1cc2occ(NC=O)c(=O)c2cc1Oc1ccccc1 [T-614γ, N-[3-(formylamino)-4-oxo-6-phenoxy-4H-chromen-7-yl]methanesulfonamide]	almost kept unchanged

same assay, conditions: high humidity condition, 7 days, 25° C.

SMILES	Stability under a high humidity condition
CS(=O)(=O)Nc1cc2occ(NC=O)c(=O)c2cc1Oc1ccccc1 [T-614 hydrate, N-[3-(formylamino)-4-oxo-6-phenoxy-4H-chromen-7-yl]methanesulfonamide]	stable under a high humidity condition
CS(=O)(=O)Nc1cc2occ(NC=O)c(=O)c2cc1Oc1ccccc1 [T-614β, N-[3-(formylamino)-4-oxo-6-phenoxy-4H-chromen-7-yl]methanesulfonamide]	stable under a high humidity condition
CS(=O)(=O)Nc1cc2occ(NC=O)c(=O)c2cc1Oc1ccccc1 [T-614γ, N-[3-(formylamino)-4-oxo-6-phenoxy-4H-chromen-7-yl]methanesulfonamide]	stable under a high humidity condition

same assay, conditions: relative humidity 22% RH, 7 days, 25° C.

SMILES	Water content (%)
CS(=O)(=O)Nc1cc2occ(NC=O)c(=O)c2cc1Oc1ccccc1 [T-614 hydrate, N-[3-(formylamino)-4-oxo-6-phenoxy-4H-chromen-7-yl]methanesulfonamide]	4.09
CS(=O)(=O)Nc1cc2occ(NC=O)c(=O)c2cc1Oc1ccccc1 [T-614α, N-[3-(formylamino)-4-oxo-6-phenoxy-4H -chromen-7-yl]methanesulfonamide, reference compound]	0.30
CS(=O)(=O)Nc1cc2occ(NC=O)c(=O)c2cc1Oc1ccccc1 [T-614β, N-[3-(formylamino)-4-oxo-6-phenoxy-4H-chromen-7-yl]methanesulfonamide]	0.54
CS(=O)(=O)Nc1cc2occ(NC=O)c(=O)c2cc1Oc1ccccc1 [T-614γ, N-[3-(formylamino)-4-oxo-6-phenoxy-4H-chromen-7-yl]methanesulfonamide]	0.28

same assay, conditions: relative humidity 51% RH, 7 days, 25° C.

SMILES	Water content (%)
CS(=O)(=O)Nc1cc2occ(NC=O)c(=O)c2cc1Oc1ccccc1 [T-614 hydrate, N-[3-(formylamino)-4-oxo-6-phenoxy-4H-chromen-7-yl]methanesulfonamide]	4.15
CS(=O)(=O)Nc1cc2occ(NC=O)c(=O)c2cc1Oc1ccccc1 [T-614α, N-[3-(formylamino)-4-oxo-6-phenoxy-4H -chromen-7-yl]methanesulfonamide, reference compound]	1.29
CS(=O)(=O)Nc1cc2occ(NC=O)c(=O)c2cc1Oc1ccccc1 [T-614β, N-[3-(formylamino)-4-oxo-6-phenoxy-4H-chromen-7-yl]methanesulfonamide]	0.25
CS(=O)(=O)Nc1cc2occ(NC=O)c(=O)c2cc1Oc1ccccc1 [T-614γ, N-[3-(formylamino)-4-oxo-6-phenoxy-4H-chromen-7-yl]methanesulfonamide]	0.33

same assay, conditions: relative humidity 75% RH, 7 days, 25° C.

SMILES	Water content (%)
CS(=O)(=O)Nc1cc2occ(NC=O)c(=O)c2cc1Oc1ccccc1 [T-614 hydrate, N-[3-(formylamino)-4-oxo-6-phenoxy-4H-chromen-7-yl]methanesulfonamide]	4.08
CS(=O)(=O)Nc1cc2occ(NC=O)c(=O)c2cc1Oc1ccccc1 [T-614α, N-[3-(formylamino)-4-oxo-6-phenoxy-4H -chromen-7-yl]methanesulfonamide, reference compound]	2.88
CS(=O)(=O)Nc1cc2occ(NC=O)c(=O)c2cc1Oc1ccccc1 [T-614β, N-[3-(formylamino)-4-oxo-6-phenoxy-4H-chromen-7-yl]methanesulfonamide]	0.21
CS(=O)(=O)Nc1cc2occ(NC=O)c(=O)c2cc1Oc1ccccc1 [T-614γ, N-[3-(formylamino)-4-oxo-6-phenoxy-4H-chromen-7-yl]methanesulfonamide]	0.52

same assay, conditions: relative humidity 93% RH, 7 days, 25° C.

SMILES	Water content (%)
CS(=O)(=O)Nc1cc2occ(NC=O)c(=O)c2cc1Oc1ccccc1 [T-614 hydrate, N-[3-(formylamino)-4-oxo-6-phenoxy-4H-chromen-7-yl]methanesulfonamide]	4.03
CS(=O)(=O)Nc1cc2occ(NC=O)c(=O)c2cc1Oc1ccccc1 [T-614α, N-[3-(formylamino)-4-oxo-6-phenoxy-4H -chromen-7-yl]methanesulfonamide, reference compound]	3.62
CS(=O)(=O)Nc1cc2occ(NC=O)c(=O)c2cc1Oc1ccccc1 [T-614β, N-[3-(formylamino)-4-oxo-6-phenoxy-4H-chromen-7-yl]methanesulfonamide]	0.18
CS(=O)(=O)Nc1cc2occ(NC=O)c(=O)c2cc1Oc1ccccc1 [T-614γ, N-[3-(formylamino)-4-oxo-6-phenoxy-4H-chromen-7-yl]methanesulfonamide]	0.65
